From US20160158253A1, “TREATMENT OF PANCREATIC CANCER WITH A COMBINATION OF A HYPOXIA-ACTIVATED PRODRUG AND A TAXANE” (THRESHOLD PHARMACEUTICALS, INC., priority 2013, published 2016)
Marks after values point to notes of the source that are not given here.

Assays:
[1] = von Frey neuropathy assay (mechanical hyperalgesia); format: in vivo; conditions: male CD-1 mice; compared to V, from 9 days after initiation of treatment
Experimental: To determine the effect of combination therapy on the nervous system, male CD-1 mice were randomly divided into 4 groups with 10 mice each. Mechanical hyperalgesia tests were performed prior to the initial treatment and during the study by a trained observer who was unaware of the animal group identities. […] This hyperalgesia persisted to 37 days with peaks at day 16 and day 23 (p<0.001, two-way ANOVA), and gradually returned to baseline at day 43. […] There was no difference between G+nP+T combination therapy treated and G+nP combination therapy treated animals.

[2] = system: MIA PaCa-2 human PDAC xenograft; assay: Antitumor activity in MIA PaCa-2 PDAC xenograft model; format: in vivo, nude mice
Experimental: (§1) Dosing for the animal studies described below were selected as follows. In some current human clinical trials, TH-302 is given on once-a-week schedules (QW) of three weeks on, one week off (at a dose of 240 or 340 mg/m^2). […] In xenograft models, gemcitabine is administered at 60 or 80 mg/kg in four three-day cycles (Q3D×4) (Teicher et al., Cancer Res. 6:1016, 2000; Marriman et at., invest New Drugs. 14:243, 1996). […] The therapy was administered every three days for five cycles (Q3D×5).
(§2) The animal studies were conducted using, xenograft models for pancreatic ductal adenocarcinoma (PDAC). Tumors were generated in the flanks of nude mice by subcutaneous injection of established human PDAC cell lines. Four PDAC xenograft models were established by subcutaneous implantation of either Hs766t, MIA PaCa-2, PANC-1 or BxPC-3 cells into the flank of nude mice. Mice were implanted subcutaneously in the right flank with 5×10^6 cells in 30% Matrilgel™ at a dose volume of 200 μL. Mice bearing similar tumor size were randomly assigned into different groups when tumor size reached 150 mm^3. […] Antitumor activity of the G+nP+T triplet combination therapy was assessed, and compared with the G+nP doublet combination therapy.
(§3) Tumor growth delay 1000 mm^3 (TGD1000) was determined as the difference in time required for the mean tumor size to reach 1000 mm^3 between treated group and vehicle control group. TGD1000 of T monotherapy and G+nP doublet combination therapy groups was 47 and 35 days, respectively, while TGD1000 of G+nP+T triplet combination therapy group was 53 days. […] (see Table 1, below).
(§4) In three of the four models, the triplet combination therapy increased the complete response rate (CR) relative to the G+nP combination therapy or the T monotherapy. CR was defined as disappearance of tumor or tumor size is <100 mm^3 at a study point. Of note, the CR rate of the G+nP+T combination therapy in the PANC-1 model reached 100%, compared to 0% and 60% in the T monotherapy and G+nP combination therapy groups, respectively. In the MIA PaCa-2 model, CR rate in the triplet group was 90%, compared to 0 and 10% in the T monotherapy and G+nP doublet combination therapy groups, respectively.

[3] = Clinical injection site and administration reactions of TH-302; format: in vivo, human
From the text: Care in the administration of TH 302 will reduce the chance of perivenous infiltration. If any signs or symptoms of extravasation occur, the administration of TH 302 should be immediately terminated and restarted in another vein. TH 302 should always be administered via a freely flowing i.v. line, preferably, where feasible, through a central venous catheter. Administration through small veins, particularly on the hands and feet is discouraged. Because of the progressive nature of extravasation reactions, close observation and plastic surgery consultation is recommended.
TH 302 administration reactions have been observed. […] It is recommended that a steroid such as dexamethasone (or equivalent) be included in the antiemetic regimen prior to administration. Symptoms and signs of hypersensitivity include fever, myalgia, headache, rash, pruritus, urticaria, angioedema, chest discomfort, dyspnea, coughing, cyanosis, and hypotension. If the nature and the severity of the reaction require termination of treatment, it should be determined if the reaction may or may not be an immunoglobulin E mediated process. […] If the event is clearly anaphylaxis, then epinephrine ( 1/1000, 0.3 to 0.5 mL given subcutaneously or equivalent) should be considered as well as standard treatment approaches. […] Reactions to the administration of TH 302 should be assessed and treated in a similar manner. […]

[4] = system: BxPC-3 human PDAC xenograft; assay: Antitumor activity in BxPC-3 PDAC xenograft model; format: in vivo, nude mice
Experimental: as §1, §2, §3, §4

[5] = system: cell lines with mutations in BRCA1 or BRCA2; assay: Sensitivity of BRCA1 or BRCA2 mutated cell lines to TH-302; format: cell-based
From the text: A human clinical trial can include analysis of any of a series of biomarkers. […] The prevalence of BRCA1 and BRCA2 mutations in pancreatic cancer patients is between 5% and 19%, Thus, a trial can include collection of serum, plasma, and tissue samples for analysis of any markers useful for identifying suitable patient populations and/or liar monitoring the course of therapy.

[6] = system: pancreatic ductal adenocarcinoma (PDAC); conditions: TH-302 added to gemcitabine (GEM) versus GEM only; cited from earlier work
[7] = Hematological testing (Hemavet 950 blood analyzer); format: in vivo, PANC-1 tumor bearing nude mice and CD-1 mice; conditions: 24 hrs after last treatment; T and G+nP vs V, triplet vs G+nP
Experimental: To determine the effect of combination therapy on hematopoiesis, the same treatment was employed in PANC-1 tumor bearing nude mice as well as immunocompetent CD-1 mice. Twenty-four hrs. after the last treatment, the animals were euthanized under CO2, blood was collected via heart puncture, and hematological analysis was performed using a Hemavet 950™ blood analyzer. As shown in FIG. 2 (mean±SEM), G+nP combination therapy or T monotherapy reduced neutrophils, lymphocytes, and monocytes, and complete white blood cell count (WBC), compared with V(*p<0.05 compared with V).

PANC-1 xenograft tumors = assay: Pharmacodynamic biomarkers by histology, immunohistochemistry or in situ assay in PANC-1 tumors; format: in vivo, nude mice
Experimental: We used a panel of biomakers to characterize Hs766t, MIA PaCa-2, PANC-1 and BxPC3 xenograft tumors. […] We chose a moderate hypoxic level tumor model, PANC-1, to investigate the pharmacodynamic changes caused by the different treatments, PANC-1 tumor-bearing animals were treated with vehicle, TH-302, G+nP, and G+nP+T when tumor size was approximately 500 mm^3. One day after the last treatment, tumors were harvested, fixed, paraffin-embedded, and sectioned for staining with a panel of histology and immunohistochemistry markers.
Similar to as observed for apoptosis, γH2AX-positive cells were increased in all three drug treated groups compared with V. 31±1.3 positive cells/field in the G+nP+T triplet group, compared with 19 in T alone or G+nP and less than 4 in V (p<0.05). Cells with DNA damage were evenly distributed in both the hypoxic and oxic compartments in non-necrotic regions. Ki67 is a marker of cell proliferation, labeling all active phases of the cell cycle including S, G2, and mitosis.
To determine the effect of combination therapy on tumor microenvironment, tumor stroma and hypoxia were investigated. Tumor stroma is composed of extracellular matrix protein and cellular elements. Thus, collagen I and III, as main parts of extracellular matrix were evaluated by Picrosirius red staining. Activated fibroblasts in the stroma were analyzed by α-SMA. […] There was no co-localization between exogenous pimonidazole- and endogenous CAIX-positive cells, CA-IX was found in the necrotic cells as well.

[8] = system: Hs766t human PDAC xenograft; assay: Antitumor activity in Hs766t PDAC xenograft model; format: in vivo, nude mice; conditions: for MT (Median Time to reaching the size of 1000 mm^3): Kaplan-Meier; for TGI (Tumor Growth Inhibition): T 50 mg/kg i.p., nP 30 mg/kg i.v., G 60 mg/kg i.p.
Experimental: as §1, §2, §3, §4

[9] = Treatment-induced body weight loss in PDAC tumor bearing and CD-1 non-tumor bearing mice; format: in vivo
Experimental: Another series of studies were conducted to investigate the treatment-induced body weight (BW) loss in both PDAC tumor bearing animals and CD-1 immunocompetent mice. Body weight was measured daily or twice a week.

[10] = system: PANC-1 human PDAC xenograft; assay: Antitumor activity in PANC-1 PDAC xenograft model; format: in vivo, nude mice
Experimental: as §1, §2, §3, §4

pancreatic cancer = conditions: Phase 3 trial, pancreatic cancer patients; cited from earlier work
[11] = MIA PaCa-2, TV 1000 mm^3 as endpoint
[12] = PANC-1, TV 1000 mm^3 as endpoint

## Cn1c(COP(=O)(NCCBr)NCCBr)cnc1[N+](=O)[O-] [TH-302, (2-bromoethyl)({[(2-bromoethyl)amino][(2-nitro-3-methylimidazol-4-yl)methoxy]phosphoryl})amine]
[1]
  hind-paw mechanical hyperalgesia: no mechanical hyperalgesia
[2]; MIA PaCa-2
  CR (Complete Response) of 10: 0 of 10
[2]; MIA PaCa-2, Q3D×5
  TGD1000 (vs. vehicle): 6 days
[2]; MIA PaCa-2, T 50 mg/kg i.p., nP 30 mg/kg i.v., G 60 mg/kg i.p., Q3D×5
  TGI (Tumor Growth Inhibition): 27%
[2]; [11]
  ILS (Increased Life Span): 26%
  MT (Median Time to reaching the size of 1000 mm^3): 34 days
[2]; MIA PaCa-2 model
  CR rate: 0%
[3]; i.v. administration
  injection site reactions reported: Supravenous erythema and hyperpigmentation
[3]; responded to steroid and antihistamine treatment
  administration reactions observed: lip swelling and urticaria
[4]
  CR (Complete Response) of 10: 0 of 10
[4]; Q3D×5
  TGD1000 (vs. vehicle): 11 days
[4]; T 50 mg/kg i.p., nP 30 mg/kg i.v., G 60 mg/kg i.p., Q3D×5
  TGI (Tumor Growth Inhibition): 43%
[4]; TV 1000 mm^3 as endpoint
  ILS (Increased Life Span): 52%
  MT (Median Time to reaching the size of 1000 mm^3): 24 days
[5]
  sensitivity to TH-302: Enhanced sensitivity
[6]
  progression-free survival: significant increase
[7]
  neutrophils, lymphocytes, monocytes and complete white blood cell count (WBC): reduced
PANC-1 xenograft tumors; V less than 4
  γH2AX-positive cells (DNA damage): 19 positive cells/field
PANC-1 xenograft tumors; morphometric analysis
  extracellular collagen (Picrosirius red staining): no effect
  α-SMA expression (activated fibroblasts in stroma): no effect
PANC-1 xenograft tumors; non-necrotic regions, V 0.8±0.1
  number of apoptotic cells (TUNEL assay): 3±0.2 per field
PANC-1 xenograft tumors; one day after last treatment, V 9%
  tumor necrotic fraction (Masson's Trichrome histology staining): 35%
PANC-1 xenograft tumors; pimonidazole, V 12.4+2%
  hypoxic fraction (HF): 10.6±1.1%
[8]; TV 1000 mm^3 as endpoint
  MT (Median Time to reaching the size of 1000 mm^3): 59.5*^,a day
  ILS (Increased Life Span): 297%
[8]; TV 1000 mm^3 as endpoint, listed as T
  MT (Median Time to reaching the size of 1000 mm^3): 59.5 days
[8]; Q3D×5, delay of mean tumor size to 1000 mm^3
  TGD1000 (vs. vehicle): 47 days
[8]; Q3D×5
  TGI (Tumor Growth Inhibition): 82.1%*
[8]; Q3D×5, listed as T
  TGI (Tumor Growth Inhibition): 82.1%
[8]; tumor gone or <100 mm^3
  CR (Complete Response) of 10: 0 of 10
[9]; BxPC3, Nude ♀ (n = 10)
  maximal body weight loss: 0%
[9]; Hs766t, Nude ♀ (n = 10)
  maximal body weight loss: 0%
[9]; MIA PaCa-2, Nude ♀ (n = 10)
  maximal body weight loss: 0%
[9]; Non-tumor CD-1 ♀ (n = 6)
  maximal body weight loss: 0%
[9]; Non-tumor CD-1 ♂ (n = 10)
  maximal body weight loss: 0%
[9]; PANC-1 #1, Nude ♀ (n = 10)
  maximal body weight loss: 0%
[9]; PANC-1 #2, Nude ♀ (n = 5)
  maximal body weight loss: 0%
[9]; PANC-1 #3, Nude ♀ (n = 10)
  maximal body weight loss: 0%
[9]; across the 8 studies, G+nP range in 7 of 8 studies
  maximal BW loss (percentage of mean maximal BW loss compared with pretreatment): 0%
[10]; PANC-1
  CR (Complete Response) of 10: 0 of 10
[10]; PANC-1, Q3D×5
  TGD1000 (vs. vehicle): 7 days
[10]; PANC-1, T 50 mg/kg i.p., nP 30 mg/kg i.v., G 60 mg/kg i.p., Q3D×5
  TGI (Tumor Growth Inhibition): 44.5%
[10]; [12]
  ILS (Increased Life Span): 48%
  MT (Median Time to reaching the size of 1000 mm^3): 31 days
[10]; PANC-1 model
  CR rate: 0%

## Nc1ccn([C@@H]2O[C@H](CO)[C@@H](O)C2(F)F)c(=O)n1 [gemcitabine]
Pancreatic cancer
  median overall survival: 6.6 months
